# Legend:
# leukocyte NADPH oxidase = test: Effect on leukocyte NADPH oxidase (PMA-stimulated lucigenin chemiluminescence); type: cell-based, rat; details: for inhibitory rate (%), leukocyte NADPH oxidase: PMA-stimulated rat leukocytes, mean ± standard error; for inhibitory effect on leukocyte NADPH oxidase: result in words
# Experimental: Blood was drawn from the abdominal aorta of normal male Wister rats (Japan SLC) and immediately mixed with an ice-cold lysis buffer at 42 mL of the buffer per 3 mL of the blood.
# After 5 min, the mixture was centrifuged at 4° C., 1100 rpm for 5 min. The precipitate was suspended in an ice-cold Lysis buffer, and centrifuged again at 4° C., 1100 rpm for 5 min. This operation was repeated 3 times to obtain leukocytes. The obtained leukocytes were suspended in Krebs-Hepes buffer and the number of the cells was adjusted to 1×10^6/ml. 0.25 mM Lucigenin and the test agent were added, Phorbol 12-myristate 13-acetate (hereinafter to be indicated as “PMA”, SIGMA) was further added, and the chemiluminescence value was measured at 37° C. for 10 min.
# The inhibitory rate (%) was calculated by the following formula: inhibitory rate (%)=100−[(A−C)/(B−C))×[…] wherein A is the total chemiluminescence value of the leukocyte suspension with the addition of the test compound, B is the total chemiluminescence value of the leukocyte suspension (control) without addition of the test compound, and C is the total chemiluminescence value of the leukocyte suspension without stimulation with PMA.
# [1] = test system: NAD(P)H oxidase in diabetic rat aorta; test: Aorta NAD(P)H oxidase inhibitory effect, test compound added to aorta ring specimen in vitro; type: biochemical
# Experimental: This ring specimen was preincubated in Krebs-Hepes buffer containing the test compound (compound A, compound B or DPI (SIGMA)) at 37° C. for 10 min, and then transferred to Krebs-Hepes buffer containing 0.25 mM lucigenin. […] The total value of chemiluminescence was calculated from AUC of the curve drawn by plotting the chemiluminescence value (vertical axis) relative to the measurement time (horizontal axis). The obtained chemiluminescence value was divided by the wet weight of the vascular ring specimen and standardized to the superoxide anion production per aorta unit weight.
# [2] = test system: cerebral infarction model; test: Cerebral infarction model (ischemic brain disorder model), ligation of both common carotid arteries; type: in vivo, mouse
# Experimental: Male ICR mice (Japan SLC) were anesthetized with ether and fixed in the dorsal position. The both common carotid arteries were ligated using a thread. The wound was closed, and the mice were released in a cage. The death of the mouse was confirmed every 30 min up to 240 min, and cumulative mortality rate of each group was determined. Compound B was orally administered 1 hr before common carotid artery ligation.
# [3] = test system: NAD(P)H oxidase in normal rat aorta; test: Effect on normal rat NAD(P)H oxidase (superoxide anion production in aorta after administration); type: in vivo; details: 10 mg/kg for 3 days
# Experimental: The test compound (10 mg/kg) was administered to normal male Wistar rats (Japan SLC) for 3 days, and the production amount of superoxide anion in the aorta was measured in the same manner as in Experimental Example 2.
# The inhibitory rate (%) was calculated by the following formula: inhibitory rate (%)=100−(A/B)×100 wherein A is the standardized chemiluminescence value of the rats administered with the test compound, and B is the standardized chemiluminescence value of the rats without administration of the test compound (control group).
# [4] = test system: NAD(P)H oxidase in diabetic rat aorta; test: NAD(P)H oxidase activity (superoxide anion production, lucigenin chemiluminescence) in aorta of streptozotocin diabetic rats after oral administration; type: in vivo; details: once a day for 3 days
# Experimental: Streptozotocin (40 mg/kg) dissolved in 0.05 M citric acid buffer (pH 4.5) was administered into the tail vein of male Wistar rats (Japan SLC) to prepare diabetic rats. At 1 week to 8 weeks from the intravenous injection of streptozotocin, blood was drawn from the tail vein using a capillary treated with heparin, which was immediately cooled with ice and centrifuged at 3000 rpm, 15 min, 4° C. to give serum. The blood glucose level was measured by enzyme assay using a glucose measurement kit “GLU neo sinotest” (sinotest) and a microplate reader (SPECTRA MAX250, Molecular Devices).
# The NAD(P)H oxidase activity was measured by the following method, which was modified by the method of the David. G. Harrison et al. (J. Clin. Invest. 91, 2546-2551, 1993), at 4 days from the start of the test, with superoxide anion production in aorta as an index.
# To be specific, normal rat or diabetic rat free of the above-mentioned treatment was exsanguinated from the abdominal aorta, their thoracic aorta was removed. The removed thoracic aorta was immersed in Krebs-Hepes buffer and marginal tissues were removed to prepare an about 5 mm ring specimen. This ring specimen was preincubate in Krebs-Hepes buffer at 37° C. for 10 min and transferred to Krebs-Hepes buffer containing 0.25 mM lucigenin (SIGMA). 500 μM NADH (SIGMA) was added and chemiluminescence value (chemiluminescence: unit RLU: relative light units) was measured using a luminometer (MULTI-BIOLUMAT LB9505C, Warrack.Berthold) at 37° C. for 10 min. The total value of chemiluminescence was calculated from the area under the curve (hereinafter to be referred to as “AUC”) drawn by plotting the chemiluminescence value (vertical axis) relative to the measurement time (horizontal axis). The measured total value of chemiluminescence was divided by the wet weight of the vascular ring specimen and standardized to the superoxide anion production per aorta unit weight.
# The inhibitory rate (%) was calculated from the following formula: inhibitory rate (%)=100−[(A−C)/(B−C)]×100
# wherein A was the standardized value of chemiluminescence of diabetic rat administered with the test compound, B was the standardized value of chemiluminescence of diabetic rat without administration of the test compound, and C was the standardized value of chemiluminescence of normal rat without administration of the test compound.
# NAD(P)H oxidase = test: IL-8 production inhibitory effect in HUVEC cultured with 44 mM glucose; type: cell-based, human; details: for IC50: from dose-effect line by least squares; for inhibitory rate (%) of IL-8 production: 8 days
# Experimental: NAD(P)HOxidase Inhibitory Effect (Method)
# 44 mM glucose was added to Human Umbilical Vein Endothelial Cells (Bio Whittaker, hereinafter to be indicated as “HUVEC”), and cells were cultured for 8 days. Then, a lysis buffer containing a surfactant, Triton-X Nonidet P-40, was added, and interleukin-8 (hereinafter to be indicated as “IL-8”) in the cell lysate, which had been produced by NAD(P)H oxidase was measured by an enzyme-linked […]. The test compound was added one day before glucose addition.
# The inhibitory rate was calculated from the following formula: inhibitory rate (%)=100−[(A−C)/(B−C)]×100
# wherein A is IL-8 production of a cell cultured in the presence of 44 mM glucose with addition of the test compound, B is IL-8 production of a cell cultured in the presence of 44 mM glucose without addition of the test compound, and C is IL-8 production of a cell cultured in the absence of 44 mM glucose and the test compound. The IC50 value was calculated from the dose-effect line drawn by the least squares method based on the obtained inhibitory rate.
# [5] = test compound concentration 0.01 μM
# [6] = test compound concentration 0.1 μM
# [7] = test compound concentration 1 μM
compound,measurement,setting,value
"c1ccc2c(c1)[I+]c1ccccc1-2 [DPI, diphenyleneiodonium, reference compound]","inhibitory rate (%), leukocyte NADPH oxidase",leukocyte NADPH oxidase; 200 μg/mL,106.7 ± 0.2%
same,inhibitory effect on leukocyte NADPH oxidase,leukocyte NADPH oxidase,showed an inhibitory effect on leukocyte NADPH oxidase
same,inhibitory rate (%),[1]; 200 μM added to aorta ring in vitro,45.1%
same,chemiluminescence (×10^5 RLU/wet weight of aorta),"[1]; 200 μM added to aorta ring in vitro, mean ± standard error",5.2 ± 1.1 ×10^5 RLU/wet weight of aorta
same,NAD(P)H oxidase inhibitory effect on aorta ring in vitro,[1]; result in words,showed an NAD(P)H oxidase inhibitory effect
C[C@@H](Nc1nnc(-c2ccccc2)c2ccccc12)c1ccccc1 [compound B],"inhibitory rate (%), leukocyte NADPH oxidase",leukocyte NADPH oxidase; 1 μM,11.7 ± 24.2%
same,inhibitory effect on leukocyte NADPH oxidase,leukocyte NADPH oxidase,did not show an inhibitory effect on leukocyte NADPH oxidase
same,number of deaths in interval,"[2]; 1 mg/kg oral 1 hr before ligation, 0-30 min",15
same,number of deaths in interval,"[2]; 1 mg/kg oral, 31-60 min",2
same,number of deaths in interval,"[2]; 1 mg/kg oral, 61-90 min",2
same,number of deaths in interval,"[2]; 1 mg/kg oral, 91-120 min",0
same,number of deaths in interval,"[2]; 1 mg/kg oral, 121-150 min",0
same,number of deaths in interval,"[2]; 1 mg/kg oral, 151-180 min",0
same,number of deaths in interval,"[2]; 1 mg/kg oral, 181-210 min",0
same,number of deaths in interval,"[2]; 1 mg/kg oral, 211-240 min",0
same,cumulative mortality rate,"[2]; 1 mg/kg oral, up to 30 min",78.9%
same,cumulative mortality rate,"[2]; 1 mg/kg oral, up to 60 min",84.2%
same,cumulative mortality rate,"[2]; 1 mg/kg oral, up to 90 min",94.7%
same,number of deaths in interval,"[2]; 3 mg/kg oral 1 hr before ligation, 0-30 min",11
same,number of deaths in interval,"[2]; 3 mg/kg oral, 31-60 min",5
same,number of deaths in interval,"[2]; 3 mg/kg oral, 61-90 min",0
same,number of deaths in interval,"[2]; 3 mg/kg oral, 91-120 min",0
same,number of deaths in interval,"[2]; 3 mg/kg oral, 121-150 min",1
same,number of deaths in interval,"[2]; 3 mg/kg oral, 151-180 min",0
same,number of deaths in interval,"[2]; 3 mg/kg oral, 181-210 min",0
same,number of deaths in interval,"[2]; 3 mg/kg oral, 211-240 min",0
same,cumulative mortality rate,"[2]; 3 mg/kg oral, up to 30 min",57.9%
same,cumulative mortality rate,"[2]; 3 mg/kg oral, up to 60 min",84.2%
same,cumulative mortality rate,"[2]; 3 mg/kg oral, up to 150 min",89.5%
same,number of deaths in interval,"[2]; 10 mg/kg oral 1 hr before ligation, 0-30 min",8
same,number of deaths in interval,"[2]; 10 mg/kg oral, 31-60 min",6
same,number of deaths in interval,"[2]; 10 mg/kg oral, 61-90 min",2
same,number of deaths in interval,"[2]; 10 mg/kg oral, 91-120 min",1
same,number of deaths in interval,"[2]; 10 mg/kg oral, 121-150 min",0
same,number of deaths in interval,"[2]; 10 mg/kg oral, 151-180 min",0
same,number of deaths in interval,"[2]; 10 mg/kg oral, 181-210 min",0
same,number of deaths in interval,"[2]; 10 mg/kg oral, 211-240 min",0
same,cumulative mortality rate,"[2]; 10 mg/kg oral, up to 30 min",40.0%
same,cumulative mortality rate,"[2]; 10 mg/kg oral, up to 60 min",70.0%
same,cumulative mortality rate,"[2]; 10 mg/kg oral, up to 90 min",80.0%
same,cumulative mortality rate,"[2]; 10 mg/kg oral, up to 120 min",85.0%
same,mortality rate improving effect in brain ischemia model,[2]; result in words,a mortality rate improving effect was seen
same,"inhibitory rate (%), NAD(P)H oxidase in normal rat aorta",[3],−1.3%
same,effect on superoxide anion production in normal rat,[3]; result in words,did not affect the superoxide anion production
same,chemiluminescence (×10^5 RLU/wet weight of aorta),"[3]; normal rat aorta, mean ± standard error",4.01 ± 6.0 ×10^5 RLU/wet weight of aorta
same,"inhibitory rate (%), NAD(P)H oxidase in diabetic rat aorta",[4]; 10 mg/kg oral,88.5%
same,IC50,NAD(P)H oxidase,< 10 nM
same,inhibitory rate (%) of IL-8 production,NAD(P)H oxidase; [5],63.8%
same,inhibitory rate (%) of IL-8 production,NAD(P)H oxidase; [6],77.8%
same,inhibitory rate (%) of IL-8 production,NAD(P)H oxidase; [7],72.0%
O=C(O)c1nn(-c2ccccc2)c2ccccc2c1=O [compound C],"inhibitory rate (%), NAD(P)H oxidase in diabetic rat aorta",[4]; 0.01 mg/kg oral,45%
same,"inhibitory rate (%), NAD(P)H oxidase in diabetic rat aorta",[4]; 0.1 mg/kg oral,90%
same,IC50,NAD(P)H oxidase,15.4 nM
same,inhibitory rate (%) of IL-8 production,NAD(P)H oxidase; [5],−2.5%
same,inhibitory rate (%) of IL-8 production,NAD(P)H oxidase; [6],53.7%
same,inhibitory rate (%) of IL-8 production,NAD(P)H oxidase; [7],97.7%
NC(=O)c1nn(-c2ccccc2)c2ccccc2c1=O [compound D],"inhibitory rate (%), NAD(P)H oxidase in diabetic rat aorta",[4]; 0.01 mg/kg oral,44%
same,"inhibitory rate (%), NAD(P)H oxidase in diabetic rat aorta",[4]; 0.1 mg/kg oral,72%
same,IC50,NAD(P)H oxidase,11.1 nM
same,inhibitory rate (%) of IL-8 production,NAD(P)H oxidase; [5],45.4%
same,inhibitory rate (%) of IL-8 production,NAD(P)H oxidase; [6],98.3%
same,inhibitory rate (%) of IL-8 production,NAD(P)H oxidase; [7],100%
CCOC(=O)c1nn(-c2ccccc2)c2ccccc2c1=O [compound E],IC50,NAD(P)H oxidase,< 10 nM
same,inhibitory rate (%) of IL-8 production,NAD(P)H oxidase; [5],96.3%
same,inhibitory rate (%) of IL-8 production,NAD(P)H oxidase; [7],91.0%
N#Cc1nn(-c2ccccc2)c2ccccc2c1=O [compound F],IC50,NAD(P)H oxidase,943 nM
same,inhibitory rate (%) of IL-8 production,NAD(P)H oxidase; [5],0%
same,inhibitory rate (%) of IL-8 production,NAD(P)H oxidase; [6],0%
same,inhibitory rate (%) of IL-8 production,NAD(P)H oxidase; [7],54.5%
N/C(=N\O)c1nn(-c2ccccc2)c2ccccc2c1=O [compound G],IC50,NAD(P)H oxidase,219 nM
same,inhibitory rate (%) of IL-8 production,NAD(P)H oxidase; [5],39.7%
same,inhibitory rate (%) of IL-8 production,NAD(P)H oxidase; [6],43.9%
same,inhibitory rate (%) of IL-8 production,NAD(P)H oxidase; [7],57.4%
Cc1cc(C)n(-c2nnc(-c3ccccc3)c3ccccc23)n1 [compound H],IC50,NAD(P)H oxidase,69 nM
same,inhibitory rate (%) of IL-8 production,NAD(P)H oxidase; [5],27.6%
same,inhibitory rate (%) of IL-8 production,NAD(P)H oxidase; [6],49.9%
same,inhibitory rate (%) of IL-8 production,NAD(P)H oxidase; [7],83.0%
